The results in this text go back to US7351837B1, “Thermally cleavable surfactants without deprotonation” (Sandia Corporation, priority 2004, dated 2008).

Type in all cases: physicochemical
Data set [1] is described as follows: critical micelle concentration by dynamic surface tension (maximum bubble pressure method). Conditions: aqueous solution. As to the method: The dynamic surface tension measurements were conducted using a SENSADYNE® QC3000 dynamic surface tensiometer (available from the SENSADYNE® Instruments Division of the Chem-Dyne Research Corporation, Mesa, Ariz.) that utilizes the maximum bubble pressure method. The fundamental operating principles and theoretical considerations of this method are explained in detail elsewhere, and a brief summary only is given here. Two glass probes with different orifice diameters (0.5 and 4.0 mm) were submerged in an aqueous surfactant solution and nitrogen was bubbled through the samples. Dry nitrogen was used as the bubble source gas and was delivered to the instrument at 50 psi. The instrument was operated at a bubble frequency of 0.5 Hz to approximate equilibrium surface tension values for each sample. The differential pressure signal generated by bubble formation is related to the interfacial surface tension of the liquid and gas. Surface tension calibration was carried out by measuring the surface tension of deionized water and ethanol and comparing to known literature values. Solution temperature was monitored with a calibrated thermistor (± 0.1° C.) attached to the orifice probes. Instrumental calibration was conducted for every change in experimental conditions and after prolonged periods of instrumental quiescence. All experiments were conducted at 25.0±0.2° C. unless otherwise noted. […]

Data set [2] is described as follows: retro-DA degradation via surface tension. The note with it: 10 mM aqueous solution. As to the method:
The surfactants of the invention undergo the retro-DA reaction after exposure to elevated temperatures. […] Data were recorded for all experiments via a computer interface using the […]3000 version 5.3 software. […] Additional measurements to determine the effect of temperature on the rates of surfactant dissociation and loss of surface active properties were conducted on 10 mM solutions of surfactant 3. The data shown in FIG. 3 clearly indicate that the temperature at which the samples are elevated to has a dramatic impact on the rate at which the surface active properties are lost in these solutions. […] At the lowest temperature monitored, 55° C., it takes over 30 hours of exposure to eliminate surface activity. The data has been fit with a logistic 4-parameter algorithm using SIGMAPLOT® (available from Systat Software, Inc., Richmond, Calif.). […] The effective control of the surface active properties of the system is envisioned to be accomplished by manipulating one or any combination of these parameters. It should also be noted that all of the surface tension measurements of the cleaved samples were taken after the samples had cooled to ambient conditions, and are convincing evidence that the dissociation accompanying the retro DA is irreversible in micelles.

The nature of data set [3]: retro-DA degradation via 1H NMR. Conditions: 65° C., 10 mM aqueous sample, isothermal. From the text:
Percent degradation was tracked by recording the decrease in the integral value for the bridge head proton of the DA adduct located at 5.02 ppm. […] It is important to note that the percent degradation of surfactant 5 over various temperatures is not necessarily linear. This is a result of the Keq for the reversible DA reaction with DA adduct formation/stability dominating at lower temperatures.

With `CCCCCCCCCCCCC12C=CC(O1)C1C(=O)N(c3ccc(S(=O)(=O)[O-])cc3)C(=O)C12.[Na+]` (stereo not drawn) [surfactant 3, exo-4-Dodecyl-7-oxabicyclo[2.2.1]hept-5-ene-2,3-dicarboxy-N-(4-sodiumsulfophenyl)imide], the “cmc by dynamic surface tension measurements” value in data set [1] (25.0±0.2° C., bubble frequency 0.5 Hz) was 5.1 mM. Further, the “second inflection point of surface tension vs concentration (micelles begin to form)” value in data set [1] (FIG. 2) is on record as approximately 5 mM. Also, in data set [2] (55° C.), the “time of exposure to eliminate surface activity” value is reported as “over 30 hours”. For the same molecule, the “time of exposure to loss of all surface activity (surface tension is that of water)” value in data set [2] (95° C.) was not above 1 h. Moreover, in data set [3], the “time of heating to complete degradation (1H NMR)” value is “about 10 hours”.
